Assay [1] relates to Mycobacterium tuberculosis (strain H37RV). In words: In-vitro method for testing compounds against M. tuberculosis (resazurin growth inhibition). Particulars: 7 days incubation. It is filed as cell-based. In general terms: Resazurin is reduced to fluorescent resorufin, in cell work by metabolically active cells.
Another assay has as its system EFA 14506. In words: Microtitre plate assay, IC90 determination, EFA 14506. It counts as cell-based, E. faecalis. Particulars: 90% inhibitory concentration for bacterial growth, strain EFA 14506, 24 hours at 37° C. On the procedure:
(§1) Stocks (0.5 ml/tube) were stored at -70° C. until use. Bacteria titrations were performed in microtiter plates to detect the TCID50, in which the TCID50 represents the dilution that gives rise to bacterial growth in 50% of inoculated cultures. In general, an inoculum level of approximately 100 TCID50 was used for susceptibility testing. […] Serial five-fold dilutions (45 μl in 180 μl) were made directly in the microtiter plates from column 2 to reach column 11. Untreated control samples with (column 1) and without (column 12) inoculum were included in each microtiter plate. Depending on the bacteria type, approximately 10 to 60 CFU per well of bacteria inoculum (100 TCID50), in a volume of 100 μl in 2.8× Mueller-Hinton broth medium, was added to the rows […]. The same volume of broth medium without inoculum was added to column 12 in row A to H. The cultures were incubated at 37° C. for 24 hours under a normal atmosphere (incubator with open air valve and continuous ventilation). At the end of incubation, one day after inoculation, the bacterial growth was quantitated fluorometrically. Therefore resazurin (0.6 mg/ml) was added in a volume of 20 μl to all wells 3 hours after inoculation, and the plates were re-incubated overnight. A change in colour from blue to pink indicated the growth of bacteria. The fluorescence was read in a computer-controlled fluorometer (Cytofluor Biosearch) at an excitation wavelength of 530 nm and an emission wavelength of 590 nm. The % growth inhibition achieved by the compounds was calculated according to standard methods. The IC90 (expressed in μg/ml) was defined as the 90% inhibitory concentration for bacterial growth.

A further assay relates to EFA 29212. The assay is described as follows: Microtitre plate assay, IC90 determination, EFA 29212. It counts as cell-based, E. faecalis. Conditions: 90% inhibitory concentration for bacterial growth, strain EFA 29212, 24 hours at 37° C.; for IC90: Enterococcus faecalis, read-out: IC90 (μg/ml) EFA 29212. The protocol: as §1
Another assay relates to SPY 8668. In words: Microtitre plate assay, IC90 determination, SPY 8668. Particulars: 90% inhibitory concentration for bacterial growth, strain SPY 8668, 24 hours at 37° C. It counts as cell-based, S. pyogens. The protocol:
as §1

A further assay concerns M. Smegmatis ATCC607. In words: In-vitro anti-bacterial activity against strain M. smegmatis ATCC607 (Alamar Blue growth inhibition). It is filed as cell-based. Particulars: 48 hours incubation; for IC50: Mycolicibacterium smegmatis, read-out: M. smegmatis pIC50 (converted). The method in brief:
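Five-fold serial compound dilutions were inoculated with about 250 CFU/well in Mueller-Hinton broth and incubated 48 h at 37° C under 5% CO2. Growth was read by Alamar Blue fluorescence (ex 530/em 590 nm) after a further 2 h. Percent growth inhibition was expressed as pIC50.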

Another assay deals with LMO 49594. In words: Microtitre plate assay, IC90 determination, LMO 49594. It is filed as cell-based, Listeria monocytogenes. Particulars: 90% inhibitory concentration for bacterial growth, strain LMO 49594, 24 hours at 37° C.; for IC90: Listeria monocytogenes, read-out: IC90 (μg/ml) LMO 49594. On the procedure:
as §1

Another assay relates to PAE 27853. The assay is described as follows: Microtitre plate assay, IC90 determination, PAE 27853. Particulars: 90% inhibitory concentration for bacterial growth, strain PAE 27853, 24 hours at 37° C. It is filed as cell-based, Pseudomonas aeruginosa. On the procedure: as §1
In a further assay the test system is SMU 33402. In words: Microtitre plate assay, IC90 determination, SMU 33402. It counts as cell-based, S. mutans. Particulars: 90% inhibitory concentration for bacterial growth, strain SMU 33402, 24 hours at 37° C.; for IC90: Streptococcus mutans, read-out: IC90 (μg/ml) SMU 33402. The protocol: as §1
The test system of the next assay is STA 25923. In words: Microtitre plate assay, IC90 determination, STA 25923. It counts as cell-based, S. aureus. Conditions: 90% inhibitory concentration for bacterial growth, strain STA 25923, 24 hours at 37° C.; for IC90: Staphylococcus aureus, read-out: IC90 (μg/ml) STA 25923. On the procedure:
as §1

For a further assay, the system named is SPN 6305. In words: Microtitre plate assay, IC90 determination, SPN 6305. It counts as cell-based, S. pneumoniae. Particulars: 90% inhibitory concentration for bacterial growth, strain SPN 6305, 24 hours at 37° C. The protocol:
as §1

The next assay relates to ECO 25922. In words: Microtitre plate assay, IC90 determination, ECO 25922. It counts as cell-based, E. coli. Conditions: 90% inhibitory concentration for bacterial growth, strain ECO 25922, 24 hours at 37° C.; for IC90: Escherichia coli, read-out: IC90 (μg/ml) ECO 25922. On the procedure: as §1
Another assay relates to BSU 43639. The assay is described as follows: Microtitre plate assay, IC90 determination, BSU 43639. It is filed as cell-based, Bacillus subtilis. Particulars: 90% inhibitory concentration for bacterial growth, strain BSU 43639, 24 hours at 37° C. On the procedure:
as §1

In a further assay the test system is STA 29213. The assay is described as follows: Microtitre plate assay, IC90 determination, STA 29213. It is filed as cell-based, S. aureus. Conditions: 90% inhibitory concentration for bacterial growth, strain STA 29213, 24 hours at 37° C.; for IC90: Staphylococcus aureus, read-out: IC90 (μg/ml) STA 29213. The protocol:
as §1

The test system of a further assay is STA RMETH. In words: Microtitre plate assay, IC90 determination, STA RMETH. It counts as cell-based, S. aureus. Conditions: Staphylococcus aureus; 90% inhibitory concentration for bacterial growth; strain STA RMETH; 24 hours at 37° C.; read-out: IC90 (μg/ml) STA RMETH. The protocol:
as §1

Another assay concerns STA 43300. In words: Microtitre plate assay, IC90 determination, STA 43300. It is filed as cell-based, S. aureus. Particulars: Staphylococcus aureus; 90% inhibitory concentration for bacterial growth; strain STA 43300; 24 hours at 37° C.; read-out: IC90 (μg/ml) STA 43300. The protocol:
as §1, with “Therefore resazurin (0.6 mg/ml) was added in a volume of 20 μl to all wells 3 hours after inoculation, and the plates were re-incubated overnight. A change in colour from blue to pink indicated the growth of bacteria.” left out, “The IC90 (expressed in μg/ml) was defined as the 90% inhibitory concentration for bacterial growth.” left out

Converted amounts (≈) assume the structure as drawn.

Turning to `COc1nc2ccc(Br)cc2cc1C(c1ccccc1)N(CCN(C)C)Cc1ccccc1` (centres unmarked) [Compound 21], the “M. tuberculosis pIC50” value in assay [1] amounted to 5.1. Further, the “IC90 (μg/ml) EFA 14506” value with EFA 14506 is 10.1 µg/mL (≈ 20 µM). In addition, in the assay on EFA 29212, the “IC90 (μg/ml) EFA 29212” value stood at 12.7 µg/mL (≈ 25.2 µM). In addition, the “IC90 (μg/ml) SPY 8668” value with SPY 8668 amounted to 10.1 µg/mL (≈ 20 µM). In the assay on M. Smegmatis ATCC607, the “M. smegmatis pIC50” value was found to be 5.8. For the same molecule, in the assay on LMO 49594, the “IC90 (μg/ml) LMO 49594” value worked out at 12.7 µg/mL (≈ 25.2 µM). Besides, the “IC90 (μg/ml) PAE 27853” value in the assay with PAE 27853 was 12.7 µg/mL (≈ 25.2 µM). For the same molecule, in the assay with SMU 33402, the “IC90 (μg/ml) SMU 33402” value was found to be 10.1 µg/mL (≈ 20 µM). Further, the “IC90 (μg/ml) STA 25923” value in the assay on STA 25923 was found to be 11.3 µg/mL (≈ 22.4 µM). Besides, the “IC90 (μg/ml) SPN 6305” value with SPN 6305 came to 12.7 µg/mL (≈ 25.2 µM). The “IC90 (μg/ml) ECO 25922” value with ECO 25922 was found to be 12.7 µg/mL (≈ 25.2 µM). For the same molecule, the “IC90 (μg/ml) BSU 43639” value in the assay on BSU 43639 is 10.1 µg/mL (≈ 20 µM). Besides, the “IC90 (μg/ml) STA 29213” value with STA 29213 amounted to 10.1 µg/mL (≈ 20 µM).
In the case of `CN(C)CCN(Cc1ccccc1)C(c1ccccc1)c1cc2cc(Br)ccc2nc1-c1ccccc1` (centres unmarked) [Compound 51], the IC50 was 7.94 µM in assay [1] (Mycobacterium tuberculosis, 168 h, read-out: M. tuberculosis pIC50 (converted)) and 1 µM in the assay on M. Smegmatis ATCC607. The IC90 in the assay on EFA 14506 (Enterococcus faecalis, read-out: IC90 (μg/ml) EFA 14506) came to 11 µg/mL (≈ 20 µM); in the assay on EFA 29212 it was 13.8 µg/mL (≈ 25.1 µM); in the assay on SPY 8668 (read-out: IC90 (μg/ml) SPY 8668) it was 2.8 µg/mL (≈ 5.09 µM); in the assay with LMO 49594, 13.8 µg/mL (≈ 25.1 µM); with PAE 27853 (Pseudomonas aeruginosa, read-out: IC90 (μg/ml) PAE 27853), 11 µg/mL (≈ 20 µM); in the assay with SMU 33402 it was 6.9 µg/mL (≈ 12.5 µM). In addition, the IC90 in the assay with STA 25923 amounted to 12.3 µg/mL (≈ 22.3 µM); in the assay with SPN 6305 (Streptococcus pneumoniae, read-out: IC90 (μg/ml) SPN 6305), 2.8 µg/mL (≈ 5.09 µM); with ECO 25922, 13.8 µg/mL (≈ 25.1 µM); in the assay on STA 29213 it was 11 µg/mL (≈ 20 µM); with STA RMETH, 12.3 µg/mL (≈ 22.3 µM).
Consider `Cc1ccc2nc(-c3ccccc3)c(C(c3ccccc3)N(CC(=O)N3CCN(C)CC3)Cc3ccccc3)cc2c1` (centres unmarked) [Compound 72], for which, in the assay on M. Smegmatis ATCC607, the IC50 was 1.58 µM. Moreover, the IC90 in the assay with LMO 49594 was found to be 11.1 µg/mL (≈ 20 µM); in the assay with STA 43300, 11.1 µg/mL (≈ 20 µM); in the assay on SMU 33402 it was 13.9 µg/mL (≈ 25.1 µM); with STA 25923, 11.1 µg/mL (≈ 20 µM); in the assay on ECO 25922 it was 55.5 µg/mL (≈ 100 µM); in the assay on BSU 43639 (Bacillus subtilis, read-out: IC90 (μg/ml) BSU 43639) it was 8.8 µg/mL (≈ 15.9 µM). Also, in the assay on STA 29213, the IC90 stood at 11.1 µg/mL (≈ 20 µM).
Consider `COc1nc2ccc(Br)cc2cc1C(c1ccccc1)N(CC(=O)N1CCN(C)CC1)Cc1cccc2ncccc12` (centres unmarked) [Compound 114], for which the IC90 was 12.5 µg/mL (≈ 20 µM) with EFA 29212; 49.6 µg/mL (≈ 79.4 µM) in the assay on LMO 49594; 12.5 µg/mL (≈ 20 µM) in the assay with STA 43300; 15.7 µg/mL (≈ 25.1 µM) with SMU 33402; 62.5 µg/mL (≈ 100 µM) in the assay with ECO 25922; 12.5 µg/mL (≈ 20 µM) in the assay on STA 29213. Further, in the assay on M. Smegmatis ATCC607, the IC50 was 20 µM.

The values above are taken from patent US7915292B2, “Antibacterial quinoline derivatives” (Janssen Pharmaceutica NV, priority 2005, dated 2011).
